Assays:
[1] = Suspension crystallization: relative thermodynamic stability of Forms I and II; type: physicochemical; details: mixture of Forms I and II suspended in toluene, stirred at least three days, solid identified by PXRD
Protocol: Methods. Suspension crystallization. The relative stability relationship between Forms I and II at a specific temperature was bracketed by suspending a mixture of the two polymorphs in toluene in a closed glass vial that was equilibrated at the temperature of interest. Excess solid of one polymorph was first added to saturate toluene in a glass vial at the chosen temperature. The other polymorph was added at least half an hour later. The suspension was stirred continuously for at least three days. A portion of the suspension was withdrawn and immediately filtered. The filtered solid was analyzed using PXRD to identify the equilibrium solid at that temperature. […] By repeating the experiment at different temperatures, the Tt was bracketed.
Suspension Crystallization. […] The Tt must be approximately 70 to about 73° C.

[2] = Relative stability of crystal forms at ambient temperature and pressure; type: physicochemical
Description: has been described in U.S. Pat. Nos. 5,466,823 and 5,521,207. The description describes a synthesis of the compound, but is silent with respect to the crystalline form which is obtained. […] The forms can be distinguished by their PXRD (powder X-ray diffraction) patterns.

Compound	temperature at which the form is thermodynamically more stable (equilibrium solid phase) [1] [°C]	stability of crystal form relative to the other form [2]
NS(=O)(=O)c1ccc(-n2nc(C(F)(F)F)cc2-c2ccc(F)cc2)cc1 [Form I, 4-[5-(4-fluorophenyl)-3-(trifluoromethyl)-1H-pyrazol-1-yl]-benzenesulfonamide]	≤ 71.0	
NS(=O)(=O)c1ccc(-n2nc(C(F)(F)F)cc2-c2ccc(F)cc2)cc1 [Form II, 4-[5-(4-fluorophenyl)-3-(trifluoromethyl)-1H-pyrazol-1-yl]-benzenesulfonamide]	≥ 71.5	unstable with respect to another form, Form I
